From patent publication US11008346B2, “Beta-lactamase inhibitors” (priority 2014, dated 2021)
pIC50: −log10 of the molar value. Like-named read-outs stand apart in the source and are kept apart here.

Columns and labels:
KPC-2 β-lactamase = target: T1, KPC-2 β-lactamase (Klebsiella pneumoniae, UniProt Q9F663); assay: β-lactamase enzyme inhibition, KPC-2; type: biochemical
T1 construct: made in house; host or cells: E. coli BL21(DE3)
Procedure: (§1) For SHV-5, Kpc-2, p99AmpC and OXA-1 β-lactamases, E. coli BL21(DE3) bacterial cells carrying expression plasmids (expressed as native untagged proteins) for the individual β-lactamases were grown in 1 L of Superbroth (Teknova Inc. Hollister, Calif.) supplemented with 100 μg/ml kanamycin selection and 1×5052 (0.5% glycerol, 0.05% glucose and 0.2% α-lactose) at 35° C. for 18-20 hours. Cells were harvested by centrifugation (4,000×g, 4° C., 20 min), resuspended in 50 ml of 10 mM HEPES pH 7.5 ( 1/20 of the initial volume). The cells were lysed by sonication (5 pulses of 45 seconds) at 45 W on ice. The lysates were clarified by centrifugation at 10,000×g for 40 minutes at 4° C. Samples were diluted 5-fold in 50 mM sodium acetate pH 5.0, stored overnight at 4° C., after which they were centrifuged at 10,000×g for 30 minutes to clarify, and filtered through 0.45 μm filters. The samples were loaded onto a 5 ml Capto S sepharose cation exchange column (GE Healthcare) pre-equilibrated with 50 mM sodium acetate pH 5.0. The column was washed with 5 column volumes of 50 mM sodium acetate pH 5.0 to wash out unbound protein and a linear gradient of NaCl (0 to 500 mM) was used to elute the protein (over 16 CV) from the column. Fractions were assayed for […] activity using Centa (Calbiochem, Gibbstown, N.J.) or Nitrocefin (EMD Millipore chemicals, Darmstadt, Germany) as a reporter β-lactamase substrate for activity in the isolated fractions. Active fractions were pooled, concentrated and further purified by gel filtration chromatography on a Superdex 75 prep grade gel filtration column (GE Healthcare, Piscataway, N.J.) pre-equilibrated in 50 mM Hepes pH 7.5, 150 mM NaCl. Active fractions were pooled, concentrated, and quantitated by BCA protein determination (Thermo Scientific, Rockford, Ill.), dialyzed into PBS and frozen at −80° C. in 20% glycerol until use.
(§2) An equal volume of diluted enzyme stock was added, and the plates were incubated at 37° C. for 15 min. Nitrocefin was used as substrate for p99 AmpC, VIM-2 and OXA-1 and dispensed into each well at a final concentration of 100 μM. Absorbance at 486 nm was immediately monitored for 10 min using a Biotek Powerwave XS2 microplate spectrophotometer using the GEN5 software package (Biotek Instruments, Winooski Vt.). In an analogous fashion, imipenem was used as substrate for KPC-2 and Cefotaxime was used for SHV-5, while changes in absorbance upon hydrolysis of the β-lactam ring were monitored at 300 nm and 260 nm respectively in UV-transparent 96-well microtiter assay plates. Maximum rates of hydrolysis were compared to those in control wells (without inhibitors), and percentages of enzyme inhibition were calculated for each concentration of inhibitor. The concentration of inhibitor needed to reduce the initial rate of hydrolysis of substrate by 50% (IC50) was calculated as the residual activity of β-lactamase at 486 nm using GraFit version 7 kinetics software package (Erithacus Software, Surrey, UK).
(§3) Using the methodology described above, examples of the current invention were evaluated for their ability to inhibit β-lactamase enzymes from all four Ambler classifications (A through D). […] NT=Not tested.

[1] = tested on: K. pneumoniae 156319 expressing KPC-3; assay: broth microdilution MIC, K. pneumoniae KPC-3; type: cell-based; conditions: Fixed Mero (meropenem) 4 μg/mL
Text: (§4) To determine the ability of test compounds to potentiate the inhibition of the growth of bacterial strains that produce beta-lactamase enzymes, classic cell based broth microdilution MIC assays were employed. Six bacteria strains producing beta-lactamase enzymes were used: E. coli expressing the Class A Extended Spectrum Beta-Lactamase (ESBL) CTX-M-15, E. cloacae expressing the Class C P99, K. pneumoniae expressing the Class A carbapenemase KPC-3, P. aeruginosa expressing the Class B carbapenemase VIM-2, K pneumoniae expressing the class A carbapenemase KPC-2 and the class B carbapenemase VIM-4, and S. aureus producing the Class A penicillinase PC-1. The assay was conducted in Cation Adjusted Mueller Hinton Broth (CAMHB, BD #212322, BD Diagnostic Systems, Sparks, Md.). Bacteria strains were grown for 3-5 hours in CAMBH broth. Test compounds were added to a microtiter plate in 2-fold serial dilutions in CAMHB in a final concentration range of 32 μg/mL to 0.25 μg/ml. An overlay of CAMHB containing a Beta-lactam was added to the compounds at a final static concentration of 4 μg/ml. […] In addition to the titration of test compounds the MICs of a panel of control beta-lactams is also tested to ensure the strains are behaving consistently from test to test. Once the test compound and antibiotics are added the plates can be inoculated according to CLSI broth microdilution method. After inoculation the plates are incubated for 16-20 hours at 37° C., then the Minimal Inhibitory Concentration (MIC) of the test compound is determined visually.
(§5) Using the methodology described above, examples of the current invention were evaluated for their ability to inhibit the growth of β-lactamase-producing bacteria in the presence of a β-lactam antibiotic.
(§6) Representative results are shown in Table 4 where A represents an MIC of the fixed β-lactam antibiotic in the presence of >32 µg/mL of a β-lactamase inhibitor of exemplary compounds, B represents the MIC in the presence of between 8 and 32 µg/mL of a β-lactamase inhibitor of exemplary compounds, and C represents the MIC in the presence of ≤4 µg/mL of a β-lactamase inhibitor of exemplary compounds. NT=Not Tested.

[2] = tested on: E. coli ESBL4 expressing CTX-M-15; assay: broth microdilution MIC, E. coli CTX-M-15; type: cell-based; conditions: Fixed CAZ (ceftazidime) 4 μg/mL
Text: as §4, §5, §6

[3] = tested on: K. pneumoniae A-1797 expressing KPC-2 and VIM-4; assay: broth microdilution MIC, K. pneumoniae KPC-2 and VIM-4; type: cell-based; conditions: Fixed Mero (meropenem) 4 μg/mL
Text: as §4, §5, §6

[4] = tested on: E. cloacae 144200 expressing Class C P99 AmpC; assay: broth microdilution MIC, E. cloacae P99; type: cell-based; conditions: Fixed CAZ (ceftazidime) 4 μg/mL
Text: as §4, §5, §6

OXA-1 β-lactamase = target: T2, OXA-1 β-lactamase (Escherichia coli, UniProt P13661); assay: β-lactamase enzyme inhibition, OXA-1; type: biochemical; conditions: Nitrocefin 100 μM, 486 nm; 15 min at 37° C. preincubation; read-out: IC50 OXA-1 (Class D)
T2 construct: made in house; host or cells: E. coli BL21(DE3)
Procedure: as §1, §2, §3

p99 AmpC β-lactamase = target: T3, p99 AmpC β-lactamase (Enterobacter cloacae, UniProt P05364); assay: β-lactamase enzyme inhibition, p99 AmpC; type: biochemical
T3 construct: made in house; host or cells: E. coli BL21(DE3)
Procedure: as §1, §2
Using the methodology described above, examples of the current invention were evaluated for their ability to inhibit β-lactamase enzymes from all four Ambler classifications (A through D).

[5] = target: T4, VIM-2 metallo β-lactamase (Pseudomonas aeruginosa, UniProt Q9K2N0); assay: β-lactamase enzyme inhibition, VIM-2; type: biochemical; conditions: Nitrocefin 100 μM, 486 nm; 15 min at 37° C. preincubation; read-out: IC50 VIM-2 (Class B)
T4 construct: made in house; host or cells: E. coli BL21(DE3)
Procedure: For VIM-2 metallo β-lactamase, the procedure was identical with the following exceptions, first the protein was not pH adjusted to pH 5 with 50 mM sodium acetate. Second, the chromatography step was changed to a 5 ml Q sepharose anion exchange column pre-equilibrated with 50 mM Hepes pH 7.5, and elution of the protein was achieved by a linear gradient of NaCl (0-600 mM). Finally, the VIM-2 purification required a second run (3rd step) on the Q sepharose anion exchange column to achieve acceptable purity (>90%).
as §2, §3

SHV-5 β-lactamase = target: T5, SHV-5 β-lactamase (Klebsiella pneumoniae, UniProt P0A3M1); assay: β-lactamase enzyme inhibition, SHV-5; type: biochemical
T5 construct: made in house; host or cells: E. coli BL21(DE3)
Procedure: as §1, §2, §3

[6] = imipenem substrate, 300 nm, 15 min at 37° C. preincubation, read-out: IC50 KPC-2 (Class A)

T1 sequence (Q9F663 25-293, looked up): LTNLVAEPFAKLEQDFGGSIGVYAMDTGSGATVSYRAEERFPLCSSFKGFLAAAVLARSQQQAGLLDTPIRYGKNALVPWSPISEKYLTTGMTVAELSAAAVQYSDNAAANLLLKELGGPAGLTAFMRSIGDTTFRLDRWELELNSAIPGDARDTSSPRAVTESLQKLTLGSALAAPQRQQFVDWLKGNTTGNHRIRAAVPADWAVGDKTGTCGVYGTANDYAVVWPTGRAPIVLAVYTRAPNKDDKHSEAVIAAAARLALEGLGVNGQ
T3 sequence (P05364 21-381): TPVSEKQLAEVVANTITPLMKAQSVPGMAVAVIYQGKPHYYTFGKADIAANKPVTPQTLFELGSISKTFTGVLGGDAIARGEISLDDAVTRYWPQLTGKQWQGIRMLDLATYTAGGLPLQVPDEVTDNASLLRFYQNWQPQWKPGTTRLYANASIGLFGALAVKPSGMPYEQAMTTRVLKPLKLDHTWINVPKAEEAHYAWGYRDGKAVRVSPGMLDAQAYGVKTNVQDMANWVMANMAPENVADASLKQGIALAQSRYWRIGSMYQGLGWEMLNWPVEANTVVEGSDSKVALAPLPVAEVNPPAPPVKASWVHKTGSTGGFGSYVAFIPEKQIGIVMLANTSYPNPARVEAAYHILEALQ
T2 sequence (P13661 26-276): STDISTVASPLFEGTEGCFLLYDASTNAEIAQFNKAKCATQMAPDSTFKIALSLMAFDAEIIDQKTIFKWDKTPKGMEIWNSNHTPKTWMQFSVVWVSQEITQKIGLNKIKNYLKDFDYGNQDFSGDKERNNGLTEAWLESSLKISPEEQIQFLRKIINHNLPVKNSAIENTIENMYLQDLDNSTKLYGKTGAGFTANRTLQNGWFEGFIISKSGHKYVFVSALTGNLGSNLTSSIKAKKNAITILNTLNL
T5 sequence (P0A3M1 22-286): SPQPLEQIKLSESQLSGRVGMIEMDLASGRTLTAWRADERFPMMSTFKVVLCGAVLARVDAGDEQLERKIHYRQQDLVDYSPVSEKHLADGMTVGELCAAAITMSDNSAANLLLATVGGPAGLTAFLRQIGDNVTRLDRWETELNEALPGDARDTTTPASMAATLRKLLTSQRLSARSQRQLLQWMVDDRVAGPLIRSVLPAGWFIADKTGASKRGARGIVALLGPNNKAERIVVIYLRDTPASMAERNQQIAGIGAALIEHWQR

SMILES	pIC50 (KPC-2 β-lactamase)	MIC of exemplary compounds in presence of fixed β-lactams, K.P. 156319 KPC-3 [1]	MIC of exemplary compounds in presence of fixed β-lactams, E. coli ESBL4 CTX-M-15 [2]	MIC of exemplary compounds in presence of fixed β-lactams, K.P. A-1797 KPC-2 VIM-4 [3]	MIC of exemplary compounds in presence of fixed β-lactams, E. cl. 144200 p99 AmpC [4]	pIC50 (OXA-1 β-lactamase)	pIC50 (p99 AmpC β-lactamase)	pIC50 [5]	pIC50 (SHV-5 β-lactamase)	pIC50 (KPC-2 β-lactamase; [6])
C#CCCC(=O)N[C@H]1Cc2cccc(C(=O)O)c2OB1O [Example 37, (R)-2-Hydroxy-3-pent-4-ynoylamino-3,4-dihydro-2H-benzo[e][1,2]oxaborinine-8-carboxylic acid]	> 7.00	C (C represents the MIC in the presence of ≤4 g/mL of a β-lactamase inhibitor)	C (C represents the MIC in the presence of ≤4 g/mL of a β-lactamase inhibitor)	B (B represents the MIC in the presence of between 8 and 32 g/mL of a β-lactamase inhibitor)	C (C represents the MIC in the presence of ≤4 g/mL of a β-lactamase inhibitor)	> 7.00	> 7.00	5.00 to 6.00	> 7.00	–
O=C(CCC(=O)C(F)(F)F)N[C@H]1Cc2cccc(C(=O)O)c2OB1O [Example 38, (R)-2-Hydroxy-3-(5,5,5-trifluoro-4-oxo-pentanoylamino)-3,4-dihydro-2H-benzo[e][1,2]oxaborinine-8-carboxylicacid]	–	B (B represents the MIC in the presence of between 8 and 32 g/mL of a β-lactamase inhibitor)	B (B represents the MIC in the presence of between 8 and 32 g/mL of a β-lactamase inhibitor)	B (B represents the MIC in the presence of between 8 and 32 g/mL of a β-lactamase inhibitor)	C (C represents the MIC in the presence of ≤4 g/mL of a β-lactamase inhibitor)	> 7.00	> 7.00	5.00 to 6.00	> 7.00	6.00 to 7.00
CC(=O)/C=C/C(=O)N[C@H]1Cc2cccc(C(=O)O)c2OB1O [Example 39, (R)-2-Hydroxy-3-(4-oxo-pent-2-enoylamino)-3,4-dihydro-2H-benzo[e][1,2]oxaborinine-8-carboxylic acid]	–	B (B represents the MIC in the presence of between 8 and 32 g/mL of a β-lactamase inhibitor)	C (C represents the MIC in the presence of ≤4 g/mL of a β-lactamase inhibitor)	B (B represents the MIC in the presence of between 8 and 32 g/mL of a β-lactamase inhibitor)	C (C represents the MIC in the presence of ≤4 g/mL of a β-lactamase inhibitor)	> 7.00	> 7.00	6.00 to 7.00	> 7.00	> 7.00
CC(C)(C)C(=O)CCC(=O)N[C@H]1Cc2cccc(C(=O)O)c2OB1O [Example 40, (R)-3-(5,5-Dimethyl-4-oxo-hexanoylamino)-2-hydroxy-3,4-dihydro-2H-benzo[e][1,2]oxaborinine-8-carboxylic acid]	–	B (B represents the MIC in the presence of between 8 and 32 g/mL of a β-lactamase inhibitor)	C (C represents the MIC in the presence of ≤4 g/mL of a β-lactamase inhibitor)	B (B represents the MIC in the presence of between 8 and 32 g/mL of a β-lactamase inhibitor)	C (C represents the MIC in the presence of ≤4 g/mL of a β-lactamase inhibitor)	> 7.00	> 7.00	5.00 to 6.00	> 7.00	> 7.00
CC(=O)CC(=O)CCC(=O)N[C@H]1Cc2cccc(C(=O)O)c2OB1O [Example 41, (R)-3-(4,6-Dioxo-heptanoylamino)-2-hydroxy-3,4-dihydro-2H-benzo[e][1,2]oxaborinine-8-carboxylic acid]	–	B (B represents the MIC in the presence of between 8 and 32 g/mL of a β-lactamase inhibitor)	C (C represents the MIC in the presence of ≤4 g/mL of a β-lactamase inhibitor)	C (C represents the MIC in the presence of ≤4 g/mL of a β-lactamase inhibitor)	C (C represents the MIC in the presence of ≤4 g/mL of a β-lactamase inhibitor)	> 7.00	> 7.00	> 7.00	> 7.00	6.00 to 7.00
O=C(CCC(=O)c1ccccc1)N[C@H]1Cc2cccc(C(=O)O)c2OB1O [Example 42, (R)-2-Hydroxy-3-(4-oxo-4-phenyl-butyrylamino)-3,4-dihydro-2H-benzo[e][1,2]oxaborinine-8-carboxylic acid]	–	B (B represents the MIC in the presence of between 8 and 32 g/mL of a β-lactamase inhibitor)	C (C represents the MIC in the presence of ≤4 g/mL of a β-lactamase inhibitor)	B (B represents the MIC in the presence of between 8 and 32 g/mL of a β-lactamase inhibitor)	C (C represents the MIC in the presence of ≤4 g/mL of a β-lactamase inhibitor)	> 7.00	> 7.00	6.00 to 7.00	> 7.00	> 7.00
